{"source": "patent US20140364449A1", "about": "(priority 2012, published 2014)", "key": {"mu-opioid receptor [1]": {"molecular_target": "T1, mu-opioid receptor (Rattus norvegicus, UniProt P33535)", "T1 construct": "expressed in transfected cells; host or cells: HEK293 cells, transient transfection", "T1 sequence (P33535 whole entry)": "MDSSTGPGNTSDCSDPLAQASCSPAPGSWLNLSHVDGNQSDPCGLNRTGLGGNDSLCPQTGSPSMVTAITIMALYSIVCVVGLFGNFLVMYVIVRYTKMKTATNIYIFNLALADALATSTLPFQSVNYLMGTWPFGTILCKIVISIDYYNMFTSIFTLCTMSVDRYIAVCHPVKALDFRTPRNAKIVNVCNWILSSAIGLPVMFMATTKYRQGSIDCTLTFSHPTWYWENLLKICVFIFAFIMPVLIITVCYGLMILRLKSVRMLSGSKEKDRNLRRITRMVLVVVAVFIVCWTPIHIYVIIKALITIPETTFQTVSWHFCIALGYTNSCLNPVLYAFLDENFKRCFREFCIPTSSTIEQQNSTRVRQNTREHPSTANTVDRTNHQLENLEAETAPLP", "format": "binding"}, "mu-opioid receptor [2]": {"molecular_target": "T1, mu-opioid receptor", "format": "cell-based"}}, "note": "Read-outs that look alike come from different tables or passages of the source."}
{"molecule": "C[C@@H](NC(=O)[C@@H](N)Cc1ccc(O)cc1)C(=O)NCC(=O)N(C)[C@@H](Cc1ccccc1)C(=O)NCCO", "note": "[DAMGO, (D-Ala^2, N-MePhe^4, Gly^5-ol)-enkephalin]", "values": [{"measurement": "Affinity and number of binding sites, pH dependence", "setting": "mu-opioid receptor [1]", "value": "slightly (nonsignificantly) lower at pH 5.5 compared to pH 7.5"}, {"measurement": "^3H-DAMGO Bmax", "setting": "mu-opioid receptor [1]; pH 5.5", "value": 14.04, "unit": "fmol/mg"}, {"measurement": "^3H-DAMGO Bmax", "setting": "mu-opioid receptor [1]; pH 6.5", "value": 15.50, "unit": "fmol/mg"}, {"measurement": "^3H-DAMGO Bmax", "setting": "mu-opioid receptor [1]; pH 7.5", "value": 23.95, "unit": "fmol/mg"}, {"measurement": "cAMP (% baseline)", "setting": "mu-opioid receptor [2]; pH 5", "value": "43 ± 6", "unit": "% baseline"}, {"measurement": "cAMP (% baseline)", "setting": "mu-opioid receptor [2]; pH 6.5", "value": "68 ± 9", "unit": "% baseline"}, {"measurement": "Suppression of FSK/IBMX-stimulated cAMP, pH dependence", "setting": "mu-opioid receptor [2]; pH 7.5", "value": "markedly stronger at pH 5.0 than at pH 7.5"}, {"measurement": "cAMP (% baseline)", "setting": "mu-opioid receptor [2]; pH 7.5", "value": "82 ± 7", "unit": "% baseline"}]}
